Patent US5010005A, “Bio-oxidation of high alcohols in non-aqueous reaction media” (priority 1989, dated 1991)
Converted amounts (≈) assume the structure as drawn. Like-named read-outs stand apart in the source and are kept apart here.

Legend:
[1] = Partitioning of benzyl alcohol and benzaldehyde between 0.1 M phosphate buffer and solvent; format: physicochemical
Experimental: The partitioning of benzyl alcohol and benzaldehyde between 0.1 M phosphate buffer and each solvent used were measured as follows: benzyl alcohol (10 g/L) and benzaldehyde (10 g/L) were dissolved in each of the solvents of interest. Ten millilitres of each solvent were then dispensed into a test tube containing 10 ml of 0.1 M phosphate buffer (pH 8). The tubes were capped, vortexed, and the mixture was allowed to equilibrate for 1 hr at 30° C. Both phases were then assayed for benzaldehyde and benzyl alcohol as described above. […]

[2] = molecular target: T1, alcohol oxidase (Komagataella phaffii, UniProt P04842); assay: Inhibition of alcohol oxidase by benzaldehyde; format: biochemical, Pichia pastoris
T1 construct: purchased Provesta Corp. (Bartlesville, Oklahoma)
T1 sequence (P04842 2-663 limits assumed): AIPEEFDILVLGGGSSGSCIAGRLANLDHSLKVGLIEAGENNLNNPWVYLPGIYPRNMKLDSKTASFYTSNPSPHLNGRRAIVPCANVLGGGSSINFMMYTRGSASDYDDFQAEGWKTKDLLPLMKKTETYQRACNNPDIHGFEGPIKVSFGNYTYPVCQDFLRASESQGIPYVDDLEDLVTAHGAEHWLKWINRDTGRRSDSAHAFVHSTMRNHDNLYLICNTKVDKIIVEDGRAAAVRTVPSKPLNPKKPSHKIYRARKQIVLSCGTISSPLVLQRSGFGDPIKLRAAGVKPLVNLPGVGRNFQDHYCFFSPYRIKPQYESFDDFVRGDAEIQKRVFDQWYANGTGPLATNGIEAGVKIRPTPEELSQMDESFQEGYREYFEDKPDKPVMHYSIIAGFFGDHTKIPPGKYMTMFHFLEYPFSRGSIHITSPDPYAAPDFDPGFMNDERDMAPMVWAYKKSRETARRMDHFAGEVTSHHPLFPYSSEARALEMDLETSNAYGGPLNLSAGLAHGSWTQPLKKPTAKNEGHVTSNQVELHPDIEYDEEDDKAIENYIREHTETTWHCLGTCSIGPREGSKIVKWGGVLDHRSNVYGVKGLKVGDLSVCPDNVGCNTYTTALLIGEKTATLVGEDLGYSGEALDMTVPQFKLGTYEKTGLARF
Source text: Similar potent inhibition of yeast alcohol dehydrogenase by aliphatic and aromatic aldehydes including benzaldehyde has been reported (W.R. Bowen et al, J. Chem. Tech. Biotechnol. 36: 191-196, 1986). In two phase systems, the degree to which alcohol oxidase is inhibited by benzaldehyde is controlled by the concentration of the inhibitor, the concentration of the enzyme, the solvent chosen as a reaction fluid, and on the volumetric ratio of the two phases present. The effect of the first two factors is obvious, however the latter two parameters play an important role in determining the effective concentration of the inhibitor; that concentration to which the biocatalyst is exposed, potentially causing inhibition. Benzaldehyde partitions differently between the two phases depending on the solvent chosen. For example, using toluene as an extractant benzaldehyde was efficiently stripped from the aqueous phase (Table 2) and was, therefore, less able to inhibit alcohol oxidase. It is possible that this would result in improved yields over extended reaction times, despite the sacrifice in terms of initial reaction rate.

[3] = Solubility in water; format: physicochemical

## O=Cc1ccccc1 [benzaldehyde]
[1]; Ether / 0.1 M phosphate buffer pH 8, 30° C.
  Partition Coefficient (Corg /Caq): 69.4
[1]; Ethylacetate / 0.1 M phosphate buffer pH 8, 30° C.
  Partition Coefficient (Corg /Caq): 62.0
[1]; Hexane / 0.1 M phosphate buffer pH 8, 30° C.
  Partition Coefficient (Corg /Caq): 15.4
[1]; Toluene / 0.1 M phosphate buffer pH 8, 30° C.
  Partition Coefficient (Corg /Caq): 100
[2]
  Inhibition of alcohol oxidase: very strongly inhibited
[2]; listed as Benzaldehyde
  Inhibition of alcohol oxidase: extremely potent inhibitor
[3]
  solubility: ~3000 µg/mL (≈ 28.3 mM)
